Drawing on patent US11814391B2, “Macrocyclic compounds for the treatment of medical disorders” (Achillion Pharmaceuticals, Inc., priority 2018, dated 2023), this text covers ring closure, isolated yield for 15 compounds.

The conditions of this series: rcm bond, Grubbs II.

Read-outs that look alike come from different tables or passages of the source.

In turn, `C=Cc1cc(-c2cnc(C)nc2)cc2c(C(C)=O)nn(CC(=O)N3[C@H](C(=O)Nc4nc(C(F)(F)F)ccc4C)C[C@@]4(CNC(=O)C[C@@H](C)CCC=C(C)C)C[C@@H]34)c12` registered a ring closure, isolated yield (the molecule shown is the open-chain precursor, 17-membered ring, DCE, 1.25 mM, 50.0 °C) of 55.6%.
As to `CC(=O)c1nn2c3c(cc(-c4cnc(C)cn4)cc13)CC=CCC[C@@H](C)C(=O)NC[C@@]13C[C@@H](C(=O)Nc4nc(C(F)(F)F)ccc4C)N(C(=O)C2)[C@@H]1C3`, the ring closure, isolated yield (from C=CCC[C@@H](C)C(=O)NC[C@@]12C[C@@H](C(=O)Nc3nc(C(F)(F)F)ccc3C)N(C(=O)Cn3nc(C(C)=O)c4cc(-c5cnc(C)cn5)cc(CC=C)c43)[C@@H]1C2, 17-membered ring, toluene, 1.32 mM, 80.0 °C) amounted to 62.1%.
Where the note is “from C=CCc1cc(-c2cnc(C)nc2)cc2c(C(C)=O)nn(CC(=O)N3[C@H](C(=O)Nc4nc(C(F)(F)F)ccc4C)C[C@@]4(CNC(=O)CC(C)(C)CC=C)C[C@@H]34)c12, 17-membered ring, toluene, 1.2 mM, 80.0 °C”, `CC(=O)c1nn2c3c(cc(-c4cnc(C)nc4)cc13)CC=CCC(C)(C)CC(=O)NC[C@@]13C[C@@H](C(=O)Nc4nc(C(F)(F)F)ccc4C)N(C(=O)C2)[C@@H]1C3` registered a ring closure, isolated yield of 67.4%.
For `CC(=O)c1nn2c3c(cc(-c4cnc(C)nc4)cc13)CC=CCCCCN(C(=O)OC(C)(C)C)C[C@@]13C[C@@H](C(=O)Nc4nc(C(F)(F)F)ccc4C)N(C(=O)C2)[C@@H]1C3`, the ring closure, isolated yield (from C=CCCCCN(C[C@@]12C[C@@H](C(=O)Nc3nc(C(F)(F)F)ccc3C)N(C(=O)Cn3nc(C(C)=O)c4cc(-c5cnc(C)nc5)cc(CC=C)c43)[C@@H]1C2)C(=O)OC(C)(C)C, 17-membered ring, toluene, 1.2 mM, 80.0 °C) came out at 60.4%.
In the case of `CC(=O)c1nn2c3c(cc(-c4cnc(C)nc4)cc13)CC=CCC[C@@H](C)C(=O)NC[C@@]13C[C@@H](C(=O)Nc4cc(F)cc(Br)n4)N(C(=O)C2)[C@@H]1C3`, the ring closure, isolated yield (from C=CCC[C@@H](C)C(=O)NC[C@@]12C[C@@H](C(=O)Nc3cc(F)cc(Br)n3)N(C(=O)Cn3nc(C(C)=O)c4cc(-c5cnc(C)nc5)cc(CC=C)c43)[C@@H]1C2, 17-membered ring, toluene, 1.63 mM, 80.0 °C, 16.0 h) turned out to be 72.6%.
`CC(=O)c1nn2c3c(cc(-c4cnc(C)nc4)cc13)CC=CCC[C@@H](C)C(=O)NC[C@@]13C[C@@H](C(=O)Nc4ccc(F)c(Br)n4)N(C(=O)C2)[C@@H]1C3` showed a ring closure, isolated yield (from C=CCC[C@@H](C)C(=O)NC[C@@]12C[C@@H](C(=O)Nc3ccc(F)c(Br)n3)N(C(=O)Cn3nc(C(C)=O)c4cc(-c5cnc(C)nc5)cc(CC=C)c43)[C@@H]1C2, 17-membered ring, toluene, 1.67 mM, 80.0 °C) of 62.8%.
With `CC(=O)c1nn2c3c(cc(-c4cnc(C)nc4)cc13)CCCCCCC=CCCN([C@@H](C)C(=O)Nc1nc(Br)ccc1C)C(=O)C2`, under “from C=CCCCCCCc1cc(-c2cnc(C)nc2)cc2c(C(C)=O)nn(CC(=O)N(CCC=C)[C@@H](C)C(=O)Nc3nc(Br)ccc3C)c12, 16-membered ring, toluene, 1.33 mM, 80.0 °C, 16.0 h”, the ring closure, isolated yield stood at 88.9%.
Under “from C=CCCCCCCc1cc(-c2cnc(C)nc2)cc2c(C(C)=O)nn(CC(=O)N(C)[C@@H](C)C(=O)Nc3nc(Br)ccc3CC=C)c12, 20-membered ring, toluene, 1.4 mM, 80.0 °C, 16.0 h”, `CC(=O)c1nn2c3c(cc(-c4cnc(C)nc4)cc13)CCCCCCC=CCc1ccc(Br)nc1NC(=O)[C@H](C)N(C)C(=O)C2` yielded a ring closure, isolated yield of 63.8%.
Compound `CC(=O)c1nn2c3c(cc(-c4cnc5cc(C)nn5c4)cc13)CC=CCC[C@@H](C)C(=O)NC[C@@]13C[C@@H](C(=O)Nc4nc(C(F)(F)F)ccc4C)N(C(=O)C2)[C@@H]1C3` displayed a ring closure, isolated yield (from C=CCC[C@@H](C)C(=O)NC[C@@]12C[C@@H](C(=O)Nc3nc(C(F)(F)F)ccc3C)N(C(=O)Cn3nc(C(C)=O)c4cc(-c5cnc6cc(C)nn6c5)cc(CC=C)c43)[C@@H]1C2, 17-membered ring, toluene, 1.64 mM, 80.0 °C) of 66.7%.
On to `CC(=O)c1nn2c3c(cc(NC(=O)OC(C)(C)C)cc13)CC=CCCCC(=O)NC[C@@]13C[C@@H](C(=O)Nc4nc(C(F)(F)F)ccc4C)N(C(=O)C2)[C@@H]1C3`, for which the ring closure, isolated yield (from C=CCCCC(=O)NC[C@@]12C[C@@H](C(=O)Nc3nc(C(F)(F)F)ccc3C)N(C(=O)Cn3nc(C(C)=O)c4cc(NC(=O)OC(C)(C)C)cc(CC=C)c43)[C@@H]1C2, 17-membered ring, toluene, 1.3 mM, 80.0 °C, 16.0 h) was found to be 78.9%.
Take `CC(=O)c1nn2c3c(cc(OCC(C)C)cc13)CC=CCCCC(=O)NC[C@@]13C[C@@H](C(=O)Nc4nc(C(F)(F)F)ccc4C)N(C(=O)C2)[C@@H]1C3`: the ring closure, isolated yield (from C=CCCCC(=O)NC[C@@]12C[C@@H](C(=O)Nc3nc(C(F)(F)F)ccc3C)N(C(=O)Cn3nc(C(C)=O)c4cc(OCC(C)C)cc(CC=C)c43)[C@@H]1C2, 17-membered ring, toluene, 1.71 mM, 80.0 °C, 16.0 h) was determined as 92%.
Where the note is “from C=CCCCC(=O)NC[C@@]12C[C@@H](C(=O)Nc3nc(C(F)(F)F)ccc3C)N(C(=O)Cn3nc(C(C)=O)c4cc(Oc5ncc(C)cn5)cc(CC=C)c43)[C@@H]1C2, 17-membered ring, toluene, 1.5 mM, 80.0 °C”, `CC(=O)c1nn2c3c(cc(Oc4ncc(C)cn4)cc13)CC=CCCCC(=O)NC[C@@]13C[C@@H](C(=O)Nc4nc(C(F)(F)F)ccc4C)N(C(=O)C2)[C@@H]1C3` returned a ring closure, isolated yield of 61.5%.
The compound `CN(C(=O)OCc1ccccc1)[C@H]1CC=CCCCCCCc2ccc(Br)nc2NC1=O` returned a ring closure, isolated yield (from C=CCCCCCCc1ccc(Br)nc1NC(=O)[C@H](CC=C)N(C)C(=O)OCc1ccccc1, 14-membered ring, toluene, 1.85 mM, 80.0 °C, 16.0 h) of 79.6%.
Under “the molecule shown is the open-chain precursor, 17-membered ring, toluene, 1.43 mM, 80.0 °C”, “(1,R,3S,5R)-2-{2-[3-Acetyl-5-methoxy-7-(prop-2-en-1-yl)indazol-1-yl]acetyl}-5-(hex-5-enamidonaethyl)-N-[3-methyl-6-(trifluoromethyl)pyridin-2-yl]-2-azabicyclo[3.1.0]hexane-3-carboxamide” gave a ring closure, isolated yield of 69.1%.
The compound “(1R,3S,5R)-2-(2-(3-Acetyl-7-allyl-5-(2-methylpyrimidin-5-yl)-1H-indazol-1-yl)acetyl)-N-(3-methyl-6-(trifluoromethyl)pyridin-2-yl)-5-(((R)-2-methylhex-5-amido)methyl)-2-azabicyclo[3.1.0]hexane-3-carboxamide” displayed a ring closure, isolated yield (the molecule shown is the open-chain precursor, 17-membered ring, toluene, 1.72 mM, 80.0 °C) of 47.9%.
